Experimental data taken from patent US12721809B2, “Formulation for treating ophthalmic conditions” (Guangzhou KangRui Biological Pharmaceutical Technology Co., …, priority 2021, dated 2026).
Converted amounts (≈) assume the structure as drawn. “And” between values parts separate entries of the source, which are not always exact repeats. Equal entries are not always repeated.

Assays:
Type in all cases: physicochemical
[1] = API content/purity by liquid chromatography before and after pulverization; settings: for HPLC peak (percentage of peak area), Impurity 1: Impurity 1 = Intermediate A; for HPLC peak (percentage of peak area), Impurity 2: Impurity 2 = Intermediate B
Experimental: API content was determined by liquid chromatography, Diamonsil® plus-C18 column (4.6×150 mm, […]), mobile phase: acetonitrile (with 0.2‰ trifluoroacetic acid):water (with 0.2‰ trifluoroacetic acid), acetonitrile gradient 5-95%, time: 17 min, column temperature 20° C., detection wavelength 254 nm. The results are shown as follows and in FIGS. 5A-5B: […]

[2] = Particle size of KDR2-2 API before and after pulverization (Malvern); settings: for Particle size Dv (10) / Particle size Dv (50) / Particle size Dv (90): dry method (Mastersizer 3000); for D10 (μm) / D50 (μm) / D90 (μm): listed as KDR2-2 API
Experimental: Particle sizes: KDR2-2 is a poorly soluble drug with large particle sizes. The drug substance should be micronized to meet the quality standards of KDR2-2 Suspension Eye Drop. The result of microscopic observation of KDR2-2 (Batch #CK0120554-02-03P-01-32-01) in 1% Kolliphor® HS 15 is shown in FIG. 1, and the particle sizes of KDR2-2 (Batch #CK0120554-02-03P-01-32-01) in 1% Kolliphor® HS 15 were measured by malvern and is presented in Table 4.
(§1) The drug particle size for suspension eye drops should be reduced to level <10 μm in an attempt to avoid excessive lacrimation, the micronization process of drug substance was studied. The micronization process parameters of the jet are: injection pressure is 5 bar; crushing pressure is 3 bar. The particle size and distribution of the KDR2-2 API were measured before and after pulverization, to determine whether the API satisfies the formulation requirements after pulverization.
as §1, with “studied. Certain amount of KDR2-2 API was taken and fed into a jet mill.” for “studied.”, “bar; the media for micronization is air.” for “bar.”, “was” for “were”, “pulverization using the dry method (Mastersizer 3000, Malvern),” for “pulverization,”

[3] = Solubility of KDR2-2 in different media
[4] = KDR2-2 API before micronization
[5] = KDR2-2 API after micronization (jet mill)
[6] = after pulverization (jet mill, 5 bar/3 bar)
[7] = before pulverization, in 1% Kolliphor® HS 15, batch CK0120554-02-03P-01-32-01

Nc1nccc(Oc2ccc3c(C(=O)Nc4cccc(C(F)(F)F)c4)cccc3n2)n1 [KDR2-2, 2-(2-Aminopyrimidin-4-yloxy)-N-(3-(trifluoromethyl)phenyl)quinoline-5-carboxamide]
HPLC peak (percentage of peak area), KDR2-2 ([1]; KDR2-2 API after micronization): Peak area % = 99.839%
HPLC peak (percentage of peak area), Impurity 1 ([1]; KDR2-2 API after micronization): Peak area % = 0.085%
HPLC peak (percentage of peak area), Impurity 2 ([1]; KDR2-2 API after micronization): Peak area % = 0.075%
HPLC peak (percentage of peak area), KDR2-2 [1, 4]: Peak area % = 99.820%
HPLC peak (percentage of peak area), Impurity 1 [1, 4]: Peak area % = 0.08%
HPLC peak (percentage of peak area), Impurity 2 [1, 4]: Peak area % = 0.101%
Particle size Dv (10) [2, 5]: 0.304 μm
Particle size Dv (50) [2, 5]: 1.75 μm
Particle size Dv (90) [2, 5]: 3.83 μm
Particle size Dv (10) [2, 4]: 2.33 μm
Particle size Dv (50) [2, 4]: 10.5 μm
Particle size Dv (90) [2, 4]: 472 μm
D10 (μm) [2, 6]: 0.957 μm and 0.949 μm and 0.946 μm
D50 (μm) [2, 6]: 3.55 μm and 3.46 μm and 3.41 μm
D90 (μm) [2, 6]: 8.03 μm and 7.59 μm and 7.47 μm
D10 (μm) [2, 7]: 55.9 μm and 33.0 μm and 45.5 μm
D50 (μm) [2, 7]: 162 μm and 105 μm and 138 μm
D90 (μm) [2, 7]: 375 μm and 292 μm and 353 μm
solubility ([3]; acetone, organic solvent or mixture): 7700 to 11500 µg/mL (≈ 18.1 to 27 mM)
solubility ([3]; acetone/water, aqueous with cosolvent or surfactant or cyclodextrin): 7300 to 11000 µg/mL (≈ 17.2 to 25.9 mM)
solubility ([3]; acetonitrile, organic solvent or mixture): 1700 to 1900 µg/mL (≈ 4 to 4.47 mM)
solubility ([3]; chloroform, organic solvent or mixture): < 1100 µg/mL
solubility ([3]; dimethylsulfoxide, organic solvent or mixture): > 28000 µg/mL
solubility ([3]; ethanol, organic solvent or mixture): 2400 to 2700 µg/mL (≈ 5.64 to 6.35 mM)
solubility ([3]; ethyl acetate, organic solvent or mixture): 3800 to 4600 µg/mL (≈ 8.93 to 10.8 mM)
solubility ([3]; iso-propyl alcohol, organic solvent or mixture): < 1100 µg/mL
solubility ([3]; methanol, organic solvent or mixture): 6300 to 9500 µg/mL (≈ 14.8 to 22.3 mM)
solubility ([3]; methyl isobutyl ketone, organic solvent or mixture): 1800 to 2200 µg/mL (≈ 4.23 to 5.17 mM)
solubility ([3]; methyl tert-butyl ether, organic solvent or mixture): < 1200 µg/mL
solubility ([3]; tetrahydrofuran, organic solvent or mixture): > 18000 µg/mL
solubility ([3]; toluene, organic solvent or mixture): < 900 µg/mL
solubility ([3]; water): < 1100 µg/mL
